# Values quoted from earlier work in patent US9050351B2, “Topical compositions designed to maintain or restore the integrity of the mucous membranes” (RICEFARMA S.R.L., priority 2010, dated 2015).
# Tests used:
# [1] = as disclosed in WO93/19730
structure (smiles),measurement,setting,value
"C[N+](C)(C)CCOP(=O)([O-])OC[C@H](O)CO [choline alfoscerate, L-alpha-glycerylphosphorylcholine]","incidence of skin irritation, eye irritation and skin sensitisation",[1],low
same,systemic toxicity,[1],practically devoid
same,topical tolerability,[1],marked
same,solubility in water and ethanol,,highly soluble
